Values quoted from earlier work in article PMC8861878 (The Journal of pharmacy and pharmacology, 2020).

System: opioid receptor
Conditions: cited from earlier work

SMILES: CN1CC[C@]23c4c5ccc(O)c4O[C@H]2[C@@H](O[C@@H]2O[C@H](C(=O)O)[C@@H](O)[C@H](O)[C@H]2O)C=C[C@H]3[C@H]1C5 [M6G, morphine-6-glucuronide]
- affinity with opioid receptor relative to morphine: 100 times
